Laboratory results reported in article PMC7749635 (2021).

Key:
Test in all cases: in-line probing
[1] = system: 65 pnuC (RNA, riboswitch) GGAAAAUCUAUAGAGCGUUGCGUCCGAAAGUCUAAACAGACACGGCUCUUUAAAAACAAAAGGAGAAG; conditions: 20 mM Mg2+, 100 mM K+, 50 mM Tris-HCl pH 8.3, ~23 °C
[2] = system: 85 pnuC (RNA, riboswitch) GGAGGAGAAGCGGUUCAAAUCGAAAAUCUAUAGAGCGUUGCGUCCGAAAGUCUAAACAGACACGGCUCUUUAAAAACAAAAGGAGAAG; conditions: 20 mM Mg2+, 100 mM K+; 50 mM Tris-HCl pH 8.3, ~23 °C; tested at 0.1 and 1 mM
[3] = system: M2 (A60U) (RNA, riboswitch) GGAAAAUCUAUAGAGCGUUGCGUCCGAAAGUCUAAACAGACUCGGCUCUUUAAAAACAAAAGGAGAAG; conditions: 20 mM Mg2+, 100 mM K+; 50 mM Tris-HCl pH 8.3, ~23 °C; tested at 1 mM
[4] = system: M1 (G35U) (RNA, riboswitch) GGAAAAUCUAUAGAGCUUUGCGUCCGAAAGUCUAAACAGACACGGCUCUUUAAAAACAAAAGGAGAAG; conditions: 20 mM Mg2+, 100 mM K+; 50 mM Tris-HCl pH 8.3, ~23 °C; tested at 1 mM

In the case of `NC(=O)c1ccc[n+]([C@@H]2O[C@H](COP(=O)([O-])OP(=O)(O)OC[C@H]3O[C@@H](n4cnc5c(N)ncnc54)[C@H](O)[C@@H]3O)[C@@H](O)[C@H]2O)c1`, the KD ([1]; apparent) is reported as ~ 100 µM.
`Cc1cc2nc3c(=O)[nH]c(=O)nc-3n(C[C@H](O)[C@H](O)[C@H](O)COP(=O)(O)O)c2cc1C` was tested, and the binding [2] was “no”.
`O=C(O)c1cccnc1` was tested, and the binding ([1]; tested at 0.1 and 1 mM) was “no”.
For `NC(=O)c1ccc[n+]([C@@H]2O[C@H](COP(=O)(O)O)[C@@H](O)[C@H]2O)c1`, the binding [2] was “yes”, the binding [3] was “no” and the binding [4] was “no”.
In the case of `Cc1ncc(C[n+]2csc(CCOP(=O)(O)OP(=O)(O)O)c2C)c(N)n1`, the binding [2] is reported as “no”.
